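Growth conditions: 96-well plates. Treatment: test compound, 48 hours, 5 concentrations. Analysis: linear interpolation between bracketing concentrations; unreached endpoints set to highest concentration. At the GI50, growth is halved.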 Calls of active or inactive are those of the source. Cut-off read from the data, not from the text of the source: active = GI50 up to about 1.1 µM and inactive = higher.
Columns and labels:
Test in all cases: NCI-60 cell line screen, 48 h
[1] = test system: SK-MEL-5
[2] = test system: HCT-116
[3] = test system: NCI-H460
[4] = test system: ACHN
[5] = test system: SF-295
[6] = test system: HL-60
[7] = test system: HT-29
[8] = test system: SNB-75
[9] = test system: A498
[10] = test system: SN12C
[11] = test system: OVCAR-3
[12] = test system: OVCAR-8
[13] = test system: CAKI-1
[14] = test system: NCI-H522
[15] = test system: DU-145
[16] = test system: LOX IMVI
[17] = test system: NCI/ADR-RES
[18] = test system: SF-539
[19] = test system: SR
[20] = test system: U-251
[21] = test system: MOLT-4
[22] = test system: CCRF-CEM
[23] = test system: UACC-62
[24] = test system: 786-0
[25] = test system: HOP-62
[26] = test system: MCF7
[27] = test system: TK-10
[28] = test system: MDA-N
[29] = test system: UO-31
[30] = test system: NCI-H23
[31] = test system: OVCAR-5
[32] = test system: SK-MEL-2
[33] = test system: Hs-578T
[34] = test system: MDA-MB-231
[35] = test system: SNB-19
[36] = test system: KM12
[37] = test system: SF-268
[38] = test system: M14
[39] = test system: RXF 393
[40] = test system: SK-MEL-28
[41] = test system: MDA-MB-435
[42] = test system: Malme-3M
[43] = test system: K562
[44] = test system: SK-OV-3
[45] = test system: SW-620
[46] = test system: T47D
[47] = test system: HCC 2998
[48] = test system: IGROV-1
[49] = test system: PC-3
[50] = test system: OVCAR-4
[51] = test system: EKVX
[52] = test system: HCT-15
[53] = test system: NCI-H226
[54] = test system: A549
[55] = test system: COLO 205
[56] = test system: UACC-257
[57] = test system: RPMI-8226

Measured: GI50

O=C(O)c1cc(-c2ccc3c(O)ccc(O)c3c2)ccc1O
inactive: [1] 14.7 µM | [2] 16.8 µM | [3] 20.5 µM | [4] 19.3 µM | [5] 18.2 µM | [6] > 100 µM | [7] 18.8 µM | [8] 17 µM | [9] 17.4 µM | [10] 15.7 µM | [11] 20.9 µM | [12] 23.7 µM | [13] 16.6 µM | [14] 15.3 µM | [15] 24 µM | [16] 11.5 µM | [17] 28.1 µM | [18] 16 µM | [19] 3.51 µM | [20] 21.4 µM | [21] 3.01 µM | [22] 1.87 µM | [23] 18.2 µM | [24] 16.6 µM | [25] 34.1 µM | [26] 22.6 µM | [27] 20.3 µM | [28] 16.7 µM | [29] 17.4 µM | [30] 25.8 µM | [31] 18.3 µM | [32] 17.2 µM | [33] 18.7 µM | [34] 23.2 µM | [35] 40.9 µM | [36] 20.3 µM | [37] 29.1 µM | [38] 21.9 µM | [39] 12.9 µM | [40] 18.1 µM | [41] 17.5 µM | [42] 18.7 µM | [43] 5.14 µM | [44] > 10 µM | [45] 5.82 µM | [46] 6.4 µM | [47] 16.4 µM | [48] 16.7 µM | [49] 12.9 µM | [50] 16.5 µM | [51] 18.2 µM | [53] 19.7 µM | [54] 33.5 µM | [55] 19.5 µM | [56] 17.4 µM | [57] 4.78 µM
16.9 µM: [52]

CC(C)(C)[Si](C)(C)Oc1cc(CO)cc2c1cc(=N)o[n+]2[O-]
5.61 µM: [52]
inactive: [1] > 10 µM | [5] > 10 µM | [6] 3.61 µM | [7] 4.18 µM | [8] > 10 µM | [10] 5.56 µM | [12] > 10 µM | [13] > 10 µM | [15] > 10 µM | [19] 2.48 µM | [21] 2.61 µM | [22] 2.84 µM | [23] > 10 µM | [24] > 10 µM | [25] > 10 µM | [26] 2.72 µM | [27] > 10 µM | [28] > 10 µM | [30] 6.97 µM | [34] > 10 µM | [36] 4.1 µM | [37] 6.03 µM | [38] > 10 µM | [39] 3.96 µM | [40] > 10 µM | [42] > 10 µM | [43] 4.53 µM | [44] > 10 µM | [45] > 10 µM | [46] 4.8 µM | [47] 9.35 µM | [48] 8.15 µM | [49] 4.01 µM | [51] > 10 µM | [54] > 10 µM | [55] > 10 µM | [56] > 10 µM | [57] 6.22 µM
